What was measured:
Human DNA polymerase γ = target: T1, Human DNA polymerase γ (Homo sapiens, UniProt P54098); assay: DNA polymerase activity assay, human pol γ; assay type: biochemical
T1 construct: made in house
T1 sequence (P54098 1-1239): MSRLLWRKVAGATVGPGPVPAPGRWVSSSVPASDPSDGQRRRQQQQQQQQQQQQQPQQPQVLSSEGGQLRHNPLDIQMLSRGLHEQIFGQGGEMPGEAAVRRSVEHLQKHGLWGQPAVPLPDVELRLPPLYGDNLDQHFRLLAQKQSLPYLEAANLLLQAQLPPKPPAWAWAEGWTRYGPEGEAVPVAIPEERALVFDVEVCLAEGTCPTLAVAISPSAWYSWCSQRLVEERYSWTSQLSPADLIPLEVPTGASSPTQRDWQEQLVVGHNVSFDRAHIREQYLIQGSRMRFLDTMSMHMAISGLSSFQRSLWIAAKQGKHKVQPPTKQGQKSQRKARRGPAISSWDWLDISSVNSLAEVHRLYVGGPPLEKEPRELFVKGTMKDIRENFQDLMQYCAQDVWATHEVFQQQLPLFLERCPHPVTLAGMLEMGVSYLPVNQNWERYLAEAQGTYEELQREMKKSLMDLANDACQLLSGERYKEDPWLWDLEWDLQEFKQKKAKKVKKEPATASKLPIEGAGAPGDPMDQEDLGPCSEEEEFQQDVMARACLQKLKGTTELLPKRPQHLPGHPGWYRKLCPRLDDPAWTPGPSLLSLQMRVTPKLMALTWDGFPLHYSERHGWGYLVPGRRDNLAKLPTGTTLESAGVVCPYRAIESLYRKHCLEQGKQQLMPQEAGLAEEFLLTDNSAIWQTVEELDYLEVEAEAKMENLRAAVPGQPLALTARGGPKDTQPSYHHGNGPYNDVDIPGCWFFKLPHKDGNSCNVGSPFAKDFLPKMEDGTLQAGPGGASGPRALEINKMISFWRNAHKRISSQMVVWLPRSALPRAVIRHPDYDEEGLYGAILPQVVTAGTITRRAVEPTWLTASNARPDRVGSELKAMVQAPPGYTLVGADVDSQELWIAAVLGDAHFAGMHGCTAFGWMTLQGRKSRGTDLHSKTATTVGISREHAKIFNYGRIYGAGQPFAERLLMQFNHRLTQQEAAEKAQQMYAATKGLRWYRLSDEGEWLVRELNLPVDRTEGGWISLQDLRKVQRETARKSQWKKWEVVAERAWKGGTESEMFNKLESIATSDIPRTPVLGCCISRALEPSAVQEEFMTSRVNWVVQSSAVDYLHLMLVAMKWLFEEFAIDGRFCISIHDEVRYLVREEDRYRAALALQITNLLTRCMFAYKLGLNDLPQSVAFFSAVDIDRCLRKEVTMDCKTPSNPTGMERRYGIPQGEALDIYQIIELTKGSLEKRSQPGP
Method: (§1) Pols from mammals, a fish (cherry salmon), an insect (fruit fly) and a plant (cauliflower) were purified, and prokaryotic pols and other DNA metabolic enzymes, such as T7 RNA polymerase, T4 polynucleotide kinase and bovine deoxyribonuclease I, were purchased as described in our previous report. The activities of all pols and other DNA metabolic enzymes were measured as described in previous reports.
The components of the pol assay were poly(dA)/oligo(dT)18 and dTTP as the DNA template-primer and 2′-deoxyribonucleoside 5′-triphosphate (dNTP) substrate, respectively. VK2, VK3, and their synthesized derivatives (i.e., MK-3, MK-2 and MK-1) were dissolved in dimethyl sulfoxide (DMSO) at various concentrations and sonicated for 30 s. The sonicated samples (4 μL) were mixed with 16 μL of each pol enzyme (final amount, 0.05 units) in 50 mM Tris-HCl (pH 7.5) containing 1 mM dithiothreitol, 50% glycerol and 0.1 mM EDTA, and kept at 0 °C for 10 min. These inhibitor–enzyme mixtures (8 μL) were added to 16 μL of each standard enzyme reaction mixture (50 mM Tris-HCl [pH 7.5], 1 mM dithiothreitol, 1 mM MgCl2, 15% glycerol, 10 μM poly(dA)/oligo(dT)18 and 10 μM [^3H]-dTTP), and incubation was carried out at 37 °C for 60 min, except for Taq pol, which was incubated at 74 °C for 60 min. Activity without the inhibitor was considered to be 100%, and the activity remaining at each concentration of inhibitor was determined relative to this value. One unit of pol activity was defined as the amount of enzyme that catalyzed the incorporation of 1 nmol dNTP (dTTP) into the synthetic DNA template-primer (poly(dA)/oligo(dT)18, A/T = 2/1) in 60 min at 37 °C under normal reaction conditions for each enzyme (scintillation counts: approximately 1 pmol of incorporated radioactive nucleotides = 100 cpm).

Human DNA polymerase δ = target: T2, Human DNA polymerase δ (Homo sapiens, UniProt P28340); assay: DNA polymerase activity assay, human pol δ; assay type: biochemical; conditions: B-family pol; read-out: IC50 Value of MK-2, Human DNA polymerase δ
T2 construct: made in house
T2 sequence (P28340 whole entry): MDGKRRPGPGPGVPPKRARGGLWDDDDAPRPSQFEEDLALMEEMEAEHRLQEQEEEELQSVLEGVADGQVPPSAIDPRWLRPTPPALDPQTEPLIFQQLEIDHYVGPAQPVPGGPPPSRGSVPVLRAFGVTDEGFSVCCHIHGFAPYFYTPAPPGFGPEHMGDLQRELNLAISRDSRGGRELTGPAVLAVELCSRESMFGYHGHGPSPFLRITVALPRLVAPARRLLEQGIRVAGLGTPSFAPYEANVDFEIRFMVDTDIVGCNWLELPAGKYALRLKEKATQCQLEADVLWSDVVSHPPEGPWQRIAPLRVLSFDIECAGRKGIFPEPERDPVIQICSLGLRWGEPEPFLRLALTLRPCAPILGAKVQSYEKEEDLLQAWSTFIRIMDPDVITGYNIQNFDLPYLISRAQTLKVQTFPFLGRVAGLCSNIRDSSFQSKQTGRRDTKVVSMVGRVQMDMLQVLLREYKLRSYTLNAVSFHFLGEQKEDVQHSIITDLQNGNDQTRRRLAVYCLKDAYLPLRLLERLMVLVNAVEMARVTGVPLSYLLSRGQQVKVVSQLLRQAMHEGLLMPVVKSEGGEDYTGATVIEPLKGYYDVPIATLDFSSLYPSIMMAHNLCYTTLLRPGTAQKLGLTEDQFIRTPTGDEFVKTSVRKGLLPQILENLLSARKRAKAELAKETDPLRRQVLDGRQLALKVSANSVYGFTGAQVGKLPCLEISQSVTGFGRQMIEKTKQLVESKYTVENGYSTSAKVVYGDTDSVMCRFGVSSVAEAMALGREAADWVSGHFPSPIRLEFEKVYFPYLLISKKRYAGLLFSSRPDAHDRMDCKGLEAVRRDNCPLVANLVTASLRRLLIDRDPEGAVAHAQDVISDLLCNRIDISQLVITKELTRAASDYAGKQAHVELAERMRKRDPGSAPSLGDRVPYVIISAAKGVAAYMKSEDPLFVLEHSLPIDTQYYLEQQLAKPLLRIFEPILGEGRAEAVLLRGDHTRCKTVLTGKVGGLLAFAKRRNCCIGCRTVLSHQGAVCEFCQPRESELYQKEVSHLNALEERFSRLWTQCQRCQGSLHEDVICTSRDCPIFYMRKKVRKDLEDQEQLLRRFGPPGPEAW
Method: as §1
(§2) The components of the pol assay were poly(dA)/oligo(dT)18 and dTTP as the DNA template-primer and 2′-deoxyribonucleoside 5′-triphosphate (dNTP) substrate, respectively. VK2, VK3, and their synthesized derivatives (i.e., MK-3, MK-2 and MK-1) were dissolved in dimethyl sulfoxide (DMSO) at various concentrations and sonicated for 30 s. The sonicated samples (4 μL) were mixed with 16 μL of each pol enzyme (final amount, 0.05 units) in 50 mM Tris-HCl (pH 7.5) containing 1 mM dithiothreitol, 50% glycerol and 0.1 mM EDTA, and kept at 0 °C for 10 min. […] Activity without the inhibitor was considered to be 100%, and the activity remaining at each concentration of inhibitor was determined relative to this value. […]

Human DNA polymerase η = target: T3, Human DNA polymerase η (Homo sapiens, UniProt Q9Y253); assay: DNA polymerase activity assay, human pol η; assay type: biochemical; conditions: Y-family pol; read-out: IC50 Value of MK-2, Human DNA polymerase η
T3 construct: made in house
Method: as §1, §2

E. coli DNA polymerase I = target: T4, E. coli DNA polymerase I (Escherichia coli, UniProt P00582); assay: DNA polymerase activity assay, E. coli pol I; assay type: biochemical; conditions: prokaryotic pol; read-out: IC50 Value of MK-2, E. coli DNA polymerase I
T4 construct: purchased
Method: as §1, §2

T4 DNA polymerase = target: T5, T4 DNA polymerase (Enterobacteria phage T4, UniProt P04415); assay: DNA polymerase activity assay, T4 pol; assay type: biochemical; conditions: prokaryotic pol; read-out: IC50 Value of MK-2, T4 DNA polymerase
T5 construct: purchased
Method: as §1, §2

[1] = target: Calf primase of DNA polymerase α (Bos taurus, UniProt A0A3Q1MF00); assay: DNA metabolic enzyme assay, calf primase of pol α; assay type: biochemical; conditions: other DNA metabolic enzyme; read-out: IC50 Value of MK-2, Calf primase of DNA polymerase α
Chain of Calf primase of DNA polymerase α (A0A3Q1MF00 entry or part of it): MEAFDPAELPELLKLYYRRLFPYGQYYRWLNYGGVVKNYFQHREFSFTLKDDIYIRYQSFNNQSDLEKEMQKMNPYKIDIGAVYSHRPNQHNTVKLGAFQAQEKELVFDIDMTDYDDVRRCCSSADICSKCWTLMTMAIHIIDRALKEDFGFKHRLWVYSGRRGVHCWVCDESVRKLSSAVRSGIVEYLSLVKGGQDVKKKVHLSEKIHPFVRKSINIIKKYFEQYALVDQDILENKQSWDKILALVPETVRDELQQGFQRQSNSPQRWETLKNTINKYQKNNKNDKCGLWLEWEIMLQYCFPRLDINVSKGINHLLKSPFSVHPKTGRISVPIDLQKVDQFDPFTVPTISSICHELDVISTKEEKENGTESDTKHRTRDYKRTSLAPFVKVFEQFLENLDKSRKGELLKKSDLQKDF
Chain of Calf primase of DNA polymerase α (A0AAA9THK8 entry or part of it, further chain): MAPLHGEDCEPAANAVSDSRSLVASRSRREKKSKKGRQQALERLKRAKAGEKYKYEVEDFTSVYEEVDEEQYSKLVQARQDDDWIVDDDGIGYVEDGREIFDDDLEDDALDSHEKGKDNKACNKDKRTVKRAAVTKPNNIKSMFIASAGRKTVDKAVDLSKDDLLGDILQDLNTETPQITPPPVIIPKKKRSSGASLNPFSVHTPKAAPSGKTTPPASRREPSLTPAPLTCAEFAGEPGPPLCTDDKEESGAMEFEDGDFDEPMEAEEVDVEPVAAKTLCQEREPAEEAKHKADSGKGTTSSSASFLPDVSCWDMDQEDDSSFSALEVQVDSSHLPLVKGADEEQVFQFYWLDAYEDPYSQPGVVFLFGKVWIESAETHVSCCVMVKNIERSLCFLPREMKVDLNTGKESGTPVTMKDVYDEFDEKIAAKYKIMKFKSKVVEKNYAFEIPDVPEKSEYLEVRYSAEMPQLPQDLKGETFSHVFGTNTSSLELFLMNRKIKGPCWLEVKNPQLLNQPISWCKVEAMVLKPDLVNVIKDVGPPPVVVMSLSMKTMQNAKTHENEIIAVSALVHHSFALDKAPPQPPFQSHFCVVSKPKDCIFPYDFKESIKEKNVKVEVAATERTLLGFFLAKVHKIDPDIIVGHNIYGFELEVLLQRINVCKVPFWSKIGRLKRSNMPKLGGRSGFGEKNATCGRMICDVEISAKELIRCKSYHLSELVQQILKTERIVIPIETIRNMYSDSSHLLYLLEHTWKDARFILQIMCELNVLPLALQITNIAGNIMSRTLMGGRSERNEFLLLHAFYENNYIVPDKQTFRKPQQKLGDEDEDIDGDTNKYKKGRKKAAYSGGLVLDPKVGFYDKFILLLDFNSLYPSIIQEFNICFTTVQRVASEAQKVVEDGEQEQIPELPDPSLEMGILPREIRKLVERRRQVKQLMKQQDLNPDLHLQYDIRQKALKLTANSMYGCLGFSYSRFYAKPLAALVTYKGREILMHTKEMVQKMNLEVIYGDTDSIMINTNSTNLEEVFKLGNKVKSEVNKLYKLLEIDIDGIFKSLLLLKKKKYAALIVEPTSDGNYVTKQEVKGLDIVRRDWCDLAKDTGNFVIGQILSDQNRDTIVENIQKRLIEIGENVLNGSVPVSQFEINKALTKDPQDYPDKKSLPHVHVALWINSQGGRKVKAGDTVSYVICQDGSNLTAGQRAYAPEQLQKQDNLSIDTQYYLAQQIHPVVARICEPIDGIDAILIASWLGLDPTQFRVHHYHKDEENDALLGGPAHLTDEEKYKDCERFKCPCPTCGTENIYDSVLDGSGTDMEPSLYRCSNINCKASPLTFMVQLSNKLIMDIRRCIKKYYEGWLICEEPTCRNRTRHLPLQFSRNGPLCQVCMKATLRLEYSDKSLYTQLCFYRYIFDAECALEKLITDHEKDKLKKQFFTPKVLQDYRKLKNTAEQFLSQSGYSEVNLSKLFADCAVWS
Chain of Calf primase of DNA polymerase α (A0JNF4 entry or part of it, further chain): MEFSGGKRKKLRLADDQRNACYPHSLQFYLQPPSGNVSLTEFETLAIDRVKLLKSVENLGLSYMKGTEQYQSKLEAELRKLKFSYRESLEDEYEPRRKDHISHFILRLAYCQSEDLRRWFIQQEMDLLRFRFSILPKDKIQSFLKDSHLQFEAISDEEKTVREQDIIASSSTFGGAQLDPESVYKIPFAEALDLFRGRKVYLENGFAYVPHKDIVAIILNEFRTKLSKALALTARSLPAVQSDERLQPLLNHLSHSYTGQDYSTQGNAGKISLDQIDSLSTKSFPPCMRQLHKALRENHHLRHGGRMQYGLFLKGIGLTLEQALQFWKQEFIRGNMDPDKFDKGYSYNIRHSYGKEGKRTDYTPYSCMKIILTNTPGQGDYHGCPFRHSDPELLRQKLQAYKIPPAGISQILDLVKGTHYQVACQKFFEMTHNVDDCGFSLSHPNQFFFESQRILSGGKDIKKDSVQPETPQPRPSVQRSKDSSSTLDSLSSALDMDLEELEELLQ
Chain of Calf primase of DNA polymerase α (Q58D13 whole entry, further chain): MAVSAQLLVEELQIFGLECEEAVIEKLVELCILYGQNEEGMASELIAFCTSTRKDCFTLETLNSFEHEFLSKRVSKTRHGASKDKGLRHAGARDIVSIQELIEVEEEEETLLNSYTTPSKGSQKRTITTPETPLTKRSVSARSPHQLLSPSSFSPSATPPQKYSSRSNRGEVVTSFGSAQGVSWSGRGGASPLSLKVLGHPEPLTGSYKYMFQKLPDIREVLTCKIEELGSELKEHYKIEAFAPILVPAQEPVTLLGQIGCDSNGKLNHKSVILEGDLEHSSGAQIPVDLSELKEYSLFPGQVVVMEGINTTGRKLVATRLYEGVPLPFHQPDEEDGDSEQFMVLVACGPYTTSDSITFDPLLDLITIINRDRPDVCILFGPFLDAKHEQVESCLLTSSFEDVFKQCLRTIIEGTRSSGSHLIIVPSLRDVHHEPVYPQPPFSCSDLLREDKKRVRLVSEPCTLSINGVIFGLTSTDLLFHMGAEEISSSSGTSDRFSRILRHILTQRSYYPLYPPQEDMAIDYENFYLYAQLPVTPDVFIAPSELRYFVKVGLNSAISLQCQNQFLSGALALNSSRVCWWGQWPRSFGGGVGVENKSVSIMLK
Method: as §1

T7 RNA polymerase = target: T6, T7 RNA polymerase (Escherichia phage T7, UniProt P00573); assay: DNA metabolic enzyme assay, T7 RNA polymerase; assay type: biochemical; conditions: other DNA metabolic enzyme; read-out: IC50 Value of MK-2, T7 RNA polymerase
T6 construct: purchased
T6 sequence (P00573 whole entry): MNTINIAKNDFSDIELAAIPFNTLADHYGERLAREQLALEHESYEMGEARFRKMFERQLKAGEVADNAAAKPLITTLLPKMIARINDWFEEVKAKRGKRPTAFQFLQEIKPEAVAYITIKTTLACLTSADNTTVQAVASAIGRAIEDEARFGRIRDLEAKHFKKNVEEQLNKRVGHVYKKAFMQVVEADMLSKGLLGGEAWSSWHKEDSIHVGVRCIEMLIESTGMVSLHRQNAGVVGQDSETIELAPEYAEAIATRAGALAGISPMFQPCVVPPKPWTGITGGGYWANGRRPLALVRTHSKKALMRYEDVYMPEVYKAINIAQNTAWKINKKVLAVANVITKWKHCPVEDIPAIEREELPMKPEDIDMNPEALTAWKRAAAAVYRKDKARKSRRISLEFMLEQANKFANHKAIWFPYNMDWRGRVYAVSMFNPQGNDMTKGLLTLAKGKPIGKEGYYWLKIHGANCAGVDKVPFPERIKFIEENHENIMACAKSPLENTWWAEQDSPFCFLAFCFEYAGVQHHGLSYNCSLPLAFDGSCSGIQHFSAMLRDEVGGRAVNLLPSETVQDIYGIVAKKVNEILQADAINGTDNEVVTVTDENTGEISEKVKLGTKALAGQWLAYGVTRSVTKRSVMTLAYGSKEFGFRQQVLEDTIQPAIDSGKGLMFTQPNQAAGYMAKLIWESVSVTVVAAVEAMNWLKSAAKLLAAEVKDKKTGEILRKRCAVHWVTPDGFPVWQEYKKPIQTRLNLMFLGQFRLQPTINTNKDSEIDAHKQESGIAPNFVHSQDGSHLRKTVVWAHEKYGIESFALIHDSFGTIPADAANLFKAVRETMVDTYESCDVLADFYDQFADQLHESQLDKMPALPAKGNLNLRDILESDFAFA
Method: as §1

[2] = target: T7, Bovine deoxyribonuclease I (Bos taurus, UniProt P00639); assay: DNA metabolic enzyme assay, bovine deoxyribonuclease I; assay type: biochemical; conditions: other DNA metabolic enzyme; read-out: IC50 Value of MK-2, Bovine deoxyribonuclease I
T7 construct: purchased
Method: as §1

[3] = target: B-family pols (mammalian); assay: DNA polymerase activity assay, mammalian B-family pols; assay type: biochemical, mammals; conditions: range over mammalian B-family pols α, δ, ɛ; read-out: 50% inhibition of the B family of pols
Method: as §1, §2

[4] = target: X-family pols (mammalian); assay: DNA polymerase activity assay, mammalian X-family pols; assay type: biochemical, mammals; conditions: range over mammalian X-family pols β, λ, TdT; read-out: 50% inhibition of the X family of pols
Method: as §1, §2

[5] = target: Y-family pols (mammalian); assay: DNA polymerase activity assay, mammalian Y-family pols; assay type: biochemical, mammals; conditions: range over mammalian Y-family pols η, ι, κ; read-out: 50% inhibition of the Y family of pols
Method: as §1, §2

SMILES	IC50 (Human DNA polymerase γ; A-family pol, poly(dA)/oligo(dT)18 and dTTP, read-out: IC50 Value of MK-2, Human DNA polymerase γ) [µM]	IC50 (Human DNA polymerase δ) [µM]	IC50 (Human DNA polymerase η) [µM]	IC50 (E. coli DNA polymerase I) [µM]	IC50 (T4 DNA polymerase) [µM]	IC50 [1] [µM]	IC50 (T7 RNA polymerase) [µM]	IC50 [2] [µM]	IC50 [3] [µM]	IC50 [4] [µM]	IC50 [5] [µM]	Inhibitory effect on human pol γ activity (Human DNA polymerase γ; 50 μM of each compound, Figure 2)
CC(C)=CCC/C(C)=C/CC1=C(C)C(=O)c2ccccc2C1=O [MK-2]	68.8 ± 3.4	29.1 ± 1.8	37.8 ± 2.2	> 200	> 200	> 200	> 200	> 200	27.6 to 29.1	24.6 to 31	35.3 to 39	–
CC(C)=CCC/C(C)=C/CC/C(C)=C/CC/C(C)=C/CC1=C(C)C(=O)c2ccccc2C1=O [MK-4, menaquinone 4, reference compound]	–	–	–	–	–	–	–	–	–	–	–	had no effect on pol activity

Reference: publication PMC3083694, “Effects of Intermediates between Vitamins K2 and K3 on Mammalian DNA Polymerase Inhibition and Anti-Inflammatory Activity” (International Journal of Molecular Sciences, 2011)
